{"source": "patent US20210038587A1", "about": "“METHODS AND COMPOSITIONS FOR TREATING NON-ERK MAPK PATHWAY INHIBITOR-RESISTANT CANCERS” (BIOMED VALLEY DISCOVERIES, INC., priority 2013, published 2021)", "key": {"A375": {"system": "A375", "test": "Reverse Phase Protein Analysis (RPPA)", "format": "cell-based, human", "conditions": "% change from DMSO (matched cell line)", "method": "(§1) Control wells were treated with DMSO at 0.1% (v/v) for 6 hours prior to cell lysate generation. Samples were then analyzed using reverse-phase protein microarray technology (Theranostics Health).\n(§2) Cell lines with common alterations in BRAF and RAS were assayed: BRAF^V600E mutant lines A375, Colo205, and HT29; KRAS^G12C-mutant cell line MIAPACa-2; KRAS^G13D-mutant cell line HCT116; and AN3Ca with atypical HRAS^F82L mutation. Changes in protein levels are shown as a percentage change from dimethyl sulfoxide (DMSO)-treated parental control (FIG. 32A and Table 23)."}, "HCT116": {"system": "HCT116", "test": "Reverse Phase Protein Analysis (RPPA)", "format": "cell-based, human", "conditions": "% change from DMSO (matched cell line)", "method": "as §1, §2"}}}
{"smiles": "O=C(Nc1ccc2[nH]nc(-c3ccncc3)c2c1)[C@@H]1CCN(CC(=O)N2CCN(c3ccc(-c4ncccn4)cc3)CC2)C1", "note": "[SCH772984]", "values": [{"measurement": "Avg (4ebp1 T70)", "setting": "A375", "result": "−31.75", "unit": "%"}, {"measurement": "Avg (Akt S473)", "setting": "A375", "result": 58.13, "unit": "%"}, {"measurement": "Avg (Akt)", "setting": "A375", "result": "−23.26", "unit": "%"}, {"measurement": "Avg (Bad S136)", "setting": "A375", "result": 5.32, "unit": "%"}, {"measurement": "Avg (Bad S155)", "setting": "A375", "result": "−13.86", "unit": "%"}, {"measurement": "Avg (Bak)", "setting": "A375", "result": "−2.37", "unit": "%"}, {"measurement": "Avg (Bax)", "setting": "A375", "result": "−17.32", "unit": "%"}, {"measurement": "Avg (Bcl 2)", "setting": "A375", "result": "−18.53", "unit": "%"}, {"measurement": "Avg (Bcl2 S70)", "setting": "A375", "result": "−12.91", "unit": "%"}, {"measurement": "Avg (Bcl 2 T56)", "setting": "A375", "result": "−19.55", "unit": "%"}, {"measurement": "Avg (Bim)", "setting": "A375", "result": 17.52, "unit": "%"}, {"measurement": "Avg (CREB S133)", "setting": "A375", "result": "−1.55", "unit": "%"}, {"measurement": "Avg (Caspase 3 CL D175)", "setting": "A375", "result": "−9.87", "unit": "%"}, {"measurement": "Avg (Caspase 7 Cl D198)", "setting": "A375", "result": "−6", "unit": "%"}, {"measurement": "Avg (Chk1)", "setting": "A375", "result": 2.83, "unit": "%"}, {"measurement": "Avg (Chk1 S345)", "setting": "A375", "result": "−10.59", "unit": "%"}, {"measurement": "Avg (Cyclin D1)", "setting": "A375", "result": "−84.05", "unit": "%"}, {"measurement": "Avg (ERK 1 2)", "setting": "A375", "result": "−21.65", "unit": "%"}, {"measurement": "Avg (ERK 1 2 T202 Y204)", "setting": "A375", "result": "−90.63", "unit": "%"}, {"measurement": "Avg (MAK1 S360)", "setting": "A375", "result": 0.97, "unit": "%"}, {"measurement": "Avg (Mcl1)", "setting": "A375", "result": 2.11, "unit": "%"}, {"measurement": "Avg (Raptor S792)", "setting": "A375", "result": "−6.89", "unit": "%"}, {"measurement": "Avg (Raptor)", "setting": "A375", "result": "−11.66", "unit": "%"}, {"measurement": "Avg (Rictor)", "setting": "A375", "result": "−22.13", "unit": "%"}, {"measurement": "Avg (Stat1)", "setting": "A375", "result": "−6.01", "unit": "%"}, {"measurement": "Avg (Stat3)", "setting": "A375", "result": "−1.42", "unit": "%"}, {"measurement": "Avg (bad S112)", "setting": "A375", "result": "−71.44", "unit": "%"}, {"measurement": "Avg (c Fos)", "setting": "A375", "result": "−12.51", "unit": "%"}, {"measurement": "Avg (c Myc)", "setting": "A375", "result": 1.86, "unit": "%"}, {"measurement": "Avg (mTOR S2448)", "setting": "A375", "result": "−26.17", "unit": "%"}, {"measurement": "Avg (mTOR S2481)", "setting": "A375", "result": "−15.82", "unit": "%"}, {"measurement": "Avg (mTOR)", "setting": "A375", "result": "−5.18", "unit": "%"}, {"measurement": "Avg (p70 S6 Kinase)", "setting": "A375", "result": "−17.66", "unit": "%"}, {"measurement": "Avg (p90 RSK S380)", "setting": "A375", "result": "−72.44", "unit": "%"}, {"measurement": "Avg(S6 Ribo Prot S235 236)", "setting": "A375", "result": "−94.71", "unit": "%"}, {"measurement": "Avg(S6 Ribo Prot S240 244)", "setting": "A375", "result": "−91.78", "unit": "%"}, {"measurement": "Avg(Tuberin TSC2 Y1571)", "setting": "A375", "result": "−13.7", "unit": "%"}, {"measurement": "Avg(p70 S6 Kinase S371 S394)", "setting": "A375", "result": "−28.72", "unit": "%"}, {"measurement": "Avg(p70 S6 Kinase T389 T412)", "setting": "A375", "result": "−42.73", "unit": "%"}, {"measurement": "Avg (4ebp1 T70)", "setting": "HCT116", "result": 5.6, "unit": "%"}, {"measurement": "Avg (Akt S473)", "setting": "HCT116", "result": "−8.76", "unit": "%"}, {"measurement": "Avg (Akt)", "setting": "HCT116", "result": "−9.86", "unit": "%"}, {"measurement": "Avg (Bad S136)", "setting": "HCT116", "result": "−10.55", "unit": "%"}, {"measurement": "Avg (Bad S155)", "setting": "HCT116", "result": "−22.96", "unit": "%"}, {"measurement": "Avg (Bak)", "setting": "HCT116", "result": "−4.66", "unit": "%"}, {"measurement": "Avg (Bax)", "setting": "HCT116", "result": "−13.86", "unit": "%"}, {"measurement": "Avg (Bcl 2)", "setting": "HCT116", "result": "−10.58", "unit": "%"}, {"measurement": "Avg (Bcl2 S70)", "setting": "HCT116", "result": "−18.34", "unit": "%"}, {"measurement": "Avg (Bcl 2 T56)", "setting": "HCT116", "result": "−15.89", "unit": "%"}, {"measurement": "Avg (Bim)", "setting": "HCT116", "result": 1.95, "unit": "%"}, {"measurement": "Avg (CREB S133)", "setting": "HCT116", "result": "−24.18", "unit": "%"}, {"measurement": "Avg (Caspase 3 CL D175)", "setting": "HCT116", "result": "−4.63", "unit": "%"}, {"measurement": "Avg (Caspase 7 Cl D198)", "setting": "HCT116", "result": "−16.35", "unit": "%"}, {"measurement": "Avg (Chk1)", "setting": "HCT116", "result": "−5.58", "unit": "%"}, {"measurement": "Avg (Chk1 S345)", "setting": "HCT116", "result": "−18.51", "unit": "%"}, {"measurement": "Avg (Cyclin D1)", "setting": "HCT116", "result": "−73.21", "unit": "%"}, {"measurement": "Avg (ERK 1 2)", "setting": "HCT116", "result": "−10.22", "unit": "%"}, {"measurement": "Avg (ERK 1 2 T202 Y204)", "setting": "HCT116", "result": "−75.21", "unit": "%"}, {"measurement": "Avg (MAK1 S360)", "setting": "HCT116", "result": "−15.32", "unit": "%"}, {"measurement": "Avg (Mcl1)", "setting": "HCT116", "result": "−6.55", "unit": "%"}, {"measurement": "Avg (Raptor S792)", "setting": "HCT116", "result": "−18.18", "unit": "%"}, {"measurement": "Avg (Raptor)", "setting": "HCT116", "result": "−9.66", "unit": "%"}, {"measurement": "Avg (Rictor)", "setting": "HCT116", "result": "−18.5", "unit": "%"}, {"measurement": "Avg (Stat1)", "setting": "HCT116", "result": "−10.74", "unit": "%"}, {"measurement": "Avg (Stat3)", "setting": "HCT116", "result": "−7.67", "unit": "%"}, {"measurement": "Avg (bad S112)", "setting": "HCT116", "result": "−31.29", "unit": "%"}, {"measurement": "Avg (c Fos)", "setting": "HCT116", "result": "−15.27", "unit": "%"}, {"measurement": "Avg (c Myc)", "setting": "HCT116", "result": "−12.86", "unit": "%"}, {"measurement": "Avg (mTOR S2448)", "setting": "HCT116", "result": "−16.05", "unit": "%"}, {"measurement": "Avg (mTOR S2481)", "setting": "HCT116", "result": "−22.53", "unit": "%"}, {"measurement": "Avg (mTOR)", "setting": "HCT116", "result": "−12.56", "unit": "%"}, {"measurement": "Avg (p70 S6 Kinase)", "setting": "HCT116", "result": "−14.12", "unit": "%"}, {"measurement": "Avg (p90 RSK S380)", "setting": "HCT116", "result": "−33.7", "unit": "%"}, {"measurement": "Avg(S6 Ribo Prot S235 236)", "setting": "HCT116", "result": "−93.86", "unit": "%"}, {"measurement": "Avg(S6 Ribo Prot S240 244)", "setting": "HCT116", "result": "−91.07", "unit": "%"}, {"measurement": "Avg(Tuberin TSC2 Y1571)", "setting": "HCT116", "result": "−16.17", "unit": "%"}, {"measurement": "Avg(p70 S6 Kinase S371 S394)", "setting": "HCT116", "result": "−12.3", "unit": "%"}, {"measurement": "Avg(p70 S6 Kinase T389 T412)", "setting": "HCT116", "result": "−24.63", "unit": "%"}]}
